According to US8853246B2 (Dow AgroSciences LLC, priority 2009, dated 2014):

Key:
[1] = test system: Green Peach Aphid (Myzus Persicae); experiment: Insecticidal test for green peach aphid in foliar spray assay (col. MYZUPE); assay type: in vivo; conditions: green peach aphid; for pest or weed control at 200 ppm: Myzus persicae, 72 h, read-out: MYZUPE 200 ppm (Corrected % Control, rating)
How it was run: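 Cabbage seedlings with 2-3 true leaves, infested with 20-50 wingless adult and nymph aphids one day earlier, sprayed to runoff at 200 ppm (acetone/methanol stock diluted in 0.025% Tween 20), four pots per treatment. After 3 days at ~25 °C, 40% RH, live aphids counted; corrected % control versus solvent-sprayed plants.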

[2] = test system: Sweetpotato Whitefly-Crawler (Bemisia Tabaci); experiment: Insecticidal test for sweetpotato whitefly-crawler in foliar spray assay (col. BEMITA); assay type: in vivo; conditions: sweetpotato whitefly-crawler; for pest or weed control at 200 ppm: Bemisia tabaci, read-out: BEMITA 200 ppm (Corrected % Control, rating)
How it was run: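 Cotton plants (one 3-5 cm true leaf) infested with whitefly eggs (100-300/plant), held 5-6 days at 82° F, 50% RH until crawlers developed. Sprayed to runoff at 200 ppm (acetone stock diluted in 0.025% Tween 20), four plants per treatment. Live nymphs counted after 8-9 days; % control by Abbott's correction versus solvent check.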

Compound `C=Cc1nc(-c2cncc(F)c2)sc1N(C)C(=O)OC(C)(C)C` [Compound 363, [2-(5-fluoro-pyridin-3-yl)-4-vinyl-thiazol-5-yl]-methyl-carbamic acid-tert-butyl ester] has a pest or weed control at 200 ppm [1] of less than 80% and a pest or weed control at 200 ppm [2] of 80 to 100%.
`CSCC(C)C(=O)Nc1sc(-c2cncc(F)c2)nc1Cl` (centres unmarked) [Compound 364] showed a pest or weed control at 200 ppm [1] of 80 to 100% and a pest or weed control at 200 ppm [2] of 80 to 100%.
`Cc1nc(-c2cccnc2)sc1N(C)C(=O)c1cscn1` [Compound 365] gave a pest or weed control at 200 ppm [1] of 80 to 100% and a pest or weed control at 200 ppm [2] of less than 80%.
Work on `CSCC(=O)N(C)c1sc(-c2cccnc2)nc1C` [Compound 367] yielded a pest or weed control at 200 ppm [1] of 80 to 100% and a pest or weed control at 200 ppm [2] of less than 80%.
In the case of `CSCCCC(=O)N(C)c1sc(-c2cccnc2)nc1C` [Compound 368], the pest or weed control at 200 ppm [1] is reported as 80 to 100% and the pest or weed control at 200 ppm [2] is reported as 80 to 100%.
Work on `CSCCCC(=O)N(C)c1sc(-c2cccnc2)nc1Cl` [Compound 371] yielded a pest or weed control at 200 ppm [1] of 80 to 100% and a pest or weed control at 200 ppm [2] of 80 to 100%.
`CN(C(=O)c1cccc(SC(F)F)c1)c1sc(-c2cccnc2)nc1Cl` [Compound 382] gave a pest or weed control at 200 ppm [1] of less than 80% and a pest or weed control at 200 ppm [2] of less than 80%.
In the case of `CCS(=O)(=O)N1CCCC(C(=O)N(C)c2sc(-c3cccnc3)nc2Cl)C1` (centres unmarked) [Compound 394], the pest or weed control at 200 ppm [1] is reported as 80 to 100% and the pest or weed control at 200 ppm [2] is reported as 80 to 100%.
`Cc1nc(-c2cccnc2)sc1N(C)C(=O)c1cccc(SC(F)F)c1` [Compound 397] showed a pest or weed control at 200 ppm [1] of 80 to 100% and a pest or weed control at 200 ppm [2] of 80 to 100%.
Compound `Cc1nc(-c2cccnc2)sc1NC(=O)c1ccoc1` [Compound 399] has a pest or weed control at 200 ppm [1] of 80 to 100% and a pest or weed control at 200 ppm [2] of 80 to 100%.
`CN(C(=O)c1ccoc1)c1sc(-c2cccnc2)nc1Cl` [Compound 401] was tested, and the “MYZUPE 200 ppm (Corrected % Control, rating)” value [1] was “A (80-100)” and the “BEMITA 200 ppm (Corrected % Control, rating)” value [2] was “A (80-100)”.
`Cc1nc(-c2cccnc2)sc1N(C)C(=O)c1ccc([S+](C)[O-])cc1` (centres unmarked) [Compound 402] was tested, and the “MYZUPE 200 ppm (Corrected % Control, rating)” value [1] was “A (80-100)” and the “BEMITA 200 ppm (Corrected % Control, rating)” value [2] was “A (80-100)”.
For `CN(C(=O)c1ccc([S+](C)[O-])cc1)c1sc(-c2cccnc2)nc1Cl` (centres unmarked) [Compound 403], the “MYZUPE 200 ppm (Corrected % Control, rating)” value [1] was “A (80-100)” and the “BEMITA 200 ppm (Corrected % Control, rating)” value [2] was “B (Less than 80)”.
With `Cc1nc(-c2cccnc2)sc1N(C)C(=O)c1ccc(=O)n(C)n1` [Compound 404] the “MYZUPE 200 ppm (Corrected % Control, rating)” value [1] was “A (80-100)” and the “BEMITA 200 ppm (Corrected % Control, rating)” value [2] was “B (Less than 80)”.
For `CN(C(=O)c1ccc(=O)n(C)n1)c1sc(-c2cccnc2)nc1Cl` [Compound 405], the “MYZUPE 200 ppm (Corrected % Control, rating)” value [1] was “A (80-100)” and the “BEMITA 200 ppm (Corrected % Control, rating)” value [2] was “B (Less than 80)”.
`Cc1cc(C(=O)Nc2sc(-c3cccnc3)nc2C)ccn1` [Compound 406] showed a pest or weed control at 200 ppm [1] of 80 to 100% and a pest or weed control at 200 ppm [2] of less than 80%.
Compound `Cc1cc(C(=O)N(C)c2sc(-c3cccnc3)nc2Cl)ccn1` [Compound 407] has a pest or weed control at 200 ppm [1] of 80 to 100% and a pest or weed control at 200 ppm [2] of less than 80%.
For `CSCc1ccc(C(=O)Nc2sc(-c3cccnc3)nc2C)o1` [Compound 408], the pest or weed control at 200 ppm [1] was 80 to 100% and the pest or weed control at 200 ppm [2] was 80 to 100%.
With `CSCc1ccc(C(=O)N(C)c2sc(-c3cccnc3)nc2Cl)o1` [Compound 409] the “MYZUPE 200 ppm (Corrected % Control, rating)” value [1] was “A (80-100)” and the “BEMITA 200 ppm (Corrected % Control, rating)” value [2] was “A (80-100)”.
In the case of `Cc1nc(-c2cccnc2)sc1N(C)C(=O)C1CCCN(C(=O)C(C)C)C1` (centres unmarked) [Compound 410], the pest or weed control at 200 ppm [1] is reported as 80 to 100% and the pest or weed control at 200 ppm [2] is reported as 80 to 100%.
With `CC(C)C(=O)N1CCCC(C(=O)N(C)c2sc(-c3cccnc3)nc2Cl)C1` (centres unmarked) [Compound 411] the pest or weed control at 200 ppm [1] was 80 to 100% and the pest or weed control at 200 ppm [2] was 80 to 100%.
For `CC(=O)N1CCCC(C(=O)N(C)c2sc(-c3cccnc3)nc2C)C1` (centres unmarked) [Compound 412], the pest or weed control at 200 ppm [1] was 80 to 100% and the pest or weed control at 200 ppm [2] was 80 to 100%.
`CC(=O)N1CCCC(C(=O)N(C)c2sc(-c3cccnc3)nc2Cl)C1` (centres unmarked) [Compound 413] was tested, and the pest or weed control at 200 ppm [1] was 80 to 100% and the pest or weed control at 200 ppm [2] was less than 80%.
With `CN(C(=O)C1CCOC1)c1sc(-c2cccnc2)nc1Cl` (centres unmarked) [Compound 415] the “MYZUPE 200 ppm (Corrected % Control, rating)” value [1] was “A (80-100)” and the “BEMITA 200 ppm (Corrected % Control, rating)” value [2] was “A (80-100)”.
`Cc1nc(-c2cccnc2)sc1NC(=O)CCC1CC1` [Compound 416] was tested, and the pest or weed control at 200 ppm [1] was 80 to 100% and the pest or weed control at 200 ppm [2] was 80 to 100%.
Work on `Cc1nc(-c2cccnc2)sc1NC(=O)CC1CC1` [Compound 417] yielded a pest or weed control at 200 ppm [1] of 80 to 100% and a pest or weed control at 200 ppm [2] of 80 to 100%.
For `C/C=C/CCC(=O)Nc1sc(-c2cccnc2)nc1C` [Compound 418], the pest or weed control at 200 ppm [1] was 80 to 100% and the pest or weed control at 200 ppm [2] was 80 to 100%.
`CCN(C(=O)OC(C)(C)C)c1sc(-c2cncc(F)c2)nc1F` [Compound 423] was tested, and the pest or weed control at 200 ppm [1] was less than 80% and the pest or weed control at 200 ppm [2] was 80 to 100%.
